Data on three compounds can be found in article PMC6259751, “Investigating Spectrum of Biological Activity of 4- and 5-Chloro-2-hydroxy-N-[2-(arylamino)-1-alkyl-2-oxoethyl]benzamides” (Molecules, 2011).

Values after ≈ are worked out from the molar mass of the structure shown. Values joined by “and” are separate entries in the source; they are usually repeats but may differ in a detail not shown here. Identical values can stand only once. Like-named read-outs stand apart in the source and are kept apart here. Bounds are passed on as bounds.

Data set [1] concerns photosynthetic electron transport (PET) in spinach chloroplasts. Kind of data set: Inhibition of photosynthetic electron transport (PET) in spinach chloroplasts. As to conditions: DCPIP photoreduction. The format is biochemical, Spinacia oleracea L. The method in brief:
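Spinach chloroplasts (30 mg/L chlorophyll) in pH 7.2 phosphate buffer with sucrose, MgCl2 and NaCl, irradiated ~100 W/m^2 through a water filter. PET followed spectrophotometrically as DCPIP photoreduction, compounds added in DMSO. IC50 is the molar concentration giving 50% decrease in oxygen evolution rate versus untreated control.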

For a further data set, the system named is Candida tropicalis 156. The data set is described as follows: In vitro antifungal susceptibility testing (broth microdilution). The format is cell-based. As to conditions: M27-A2 for yeasts, IC80 value. For orientation: Broth dilution looks for growth in wells or tubes with falling amounts of substance.
For data set [2], the system named is Mycobacterium tuberculosis MTB CNCTC My 331/88. The data set is described as follows: In vitro antimycobacterial evaluation. The format is cell-based. As to conditions: IC90 value.
Data set [3] in a line: Lipophilicity determination by RP-HPLC (capacity factor k / log k). The format is physicochemical. The conditions noted are these: C18 column, MeOH 70% / H2O 30%, isocratic. In a few lines: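 Isocratic RP-HPLC on end-capped C18 column, MeOH/H2O 70:30, 1.0 mL/min, 30 °C, UV 210 nm. Dead time from unretained KI; k = (tR − tD)/tD, log k taken as lipophilicity index on log P scale. Calculated log P/Clog P from two programs also reported.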

The subject of data set [4] is Trichophyton mentagrophytes 445. Kind of data set: In vitro antifungal susceptibility testing (broth microdilution). As to conditions: M38-A for moulds, IC50 value, read-out: MIC TM. The format is cell-based.
Data set [5] deals with three Mycobacteria strains. The data set is described as follows: Antimycobacterial screening, summary statements (strain not specified). The format is cell-based, Mycobacterium sp. The conditions noted are these: Mycobacterium, read-out: antitubercular / antimycobacterial activity (MIC). As to the method:
The discussed amides were tested against three Mycobacteria strains. […] Activities of some benzamides, especially against M. avium and M. kansasii, considerably exceeded the activity of isoniazid (INH) used as an internal standard. The discussed compounds can be divided according to the activities against individual Mycobacteria strains, and structure-activity relationships within Group 1, Group 2 and Group 4 can be discussed.
The in vitro antimycobacterial activity of all prepared compounds was evaluated against Mycobacterium tuberculosis MTB CNCTC My 331/88 (identical with H37RV and ATCC 27294, dilution of the strain was 10^−3 μmol/L), Mycobacterium avium MA CNCTC My 330/88 (identical with ATCC 25291, dilution of the strain was 10^−5 μmol/L) and Mycobacteriumkansasii MK CNCTC My 235/80 (identical with ATCC 12478, dilution of the strain was 10^−4 μmol/L) in the Laboratory for mycobacterial diagnostics and TB, Institute of Public Health in Ostrava, Czech Republic. All strains were obtained from the Czech National Collection of Type Cultures (CNCTC). Antimycobacterial activities were determined in the Sula semisynthetic medium (Sevac, Prague, Czech Republic). […] Reading was carried out on a stand with a bottom magnifying mirror, macroscopically, with the use of magnifying glass. The growth in plates was evaluated after 14 and 21 days of the incubation. […]

Data set [6] deals with Enterococcus sp. J 14365/08. The data set is described as follows: In vitro antibacterial susceptibility testing (broth microdilution). The conditions noted are these: read-out: MIC EF.
The test system of data set [7] is Staphylococcus epidermidis H 6966/08. The data set is described as above. As to conditions: read-out: MIC SE.
For data set [8], the system named is Mycobacterium kansasii MK CNCTC My 235/80. Kind of data set: In vitro antimycobacterial evaluation. The format is cell-based. The conditions noted are these: IC90 value.
For data set [9], the system named is Mycobacterium avium MA CNCTC My 330/88. The data set is described as follows: In vitro antimycobacterial evaluation. The conditions noted are these: IC90 value. The format is cell-based.
For data set [10], the system named is methicilin resistant Staphylococcus aureus H 5996/08. Kind of data set: In vitro antibacterial susceptibility testing (broth microdilution). As to conditions: MRSA, read-out: MIC MRSA.
For data set [11], the system named is Staphylococcus aureus CCM 4516/08. The data set is described as above. As to conditions: read-out: MIC SA.
Data set [12] has as its system photosynthetic electron transport (PET) in spinach chloroplasts. More on the design: method as in earlier work. As to conditions: standard ref 41; cited from earlier work.

For the compound `O=C(N[C@H](Cc1ccccc1)C(=O)Nc1ccc(Cl)cc1)c1ccc(Cl)cc1O` [9f, N-{(1R)-1-benzyl-2-[(4-chlorophenyl)amino]-2-oxoethyl}-4-chloro-2-hydroxybenzamide], the IC50 (in general, the midpoint of a concentration-inhibition curve) in data set [1] came out at 23.5 µM. In addition, the MIC in the data set on Candida tropicalis 156 (24h) is above 125 µM; in the data set on Candida tropicalis 156 (48h), above 125 µM; in [2] (14h), 32 µM (≈ 13.7 µg/mL); in data set [2] (21h) it was 32 µM (≈ 13.7 µg/mL); in data set [4] (72h), above 125 µM; in data set [4] (120h), above 125 µM. The MIC in [5] was 32 µM (≈ 13.7 µg/mL); in [6] (SP.J14365/08, 24 h), above 500 µM; in [6] (SP.J14365/08, 48 h), above 500 µM; in data set [7] (H6966/08, 24 h) it was above 500 µM; in data set [7] (H6966/08, 48 h), above 500 µM; in data set [8] (14h), 32 µM (≈ 13.7 µg/mL). Further, the MIC in data set [8] (21h) was 32 µM (≈ 13.7 µg/mL); in data set [9] (14h), 32 µM (≈ 13.7 µg/mL); in [9] (21h) it was 32 µM (≈ 13.7 µg/mL); in data set [10] (24 h), above 500 µM; in [10] (48 h), above 500 µM; in data set [11] (CCM4516, 24 h) it was above 500 µM. The MIC in data set [11] (CCM4516, 48 h) was above 500 µM. For the same compound, the log k in data set [3] is given as 0.7479.
As to `CN(C)C(=O)Nc1ccc(Cl)c(Cl)c1` [DCMU, 3-(3,4-dichlorophenyl)-1,1-dimethylurea], the IC50 in [12] was ~1.9 µM and 1.9 µM.
`O=C(N[C@H](Cc1ccccc1)C(=O)Nc1ccc(Cl)cc1)c1cc(Cl)ccc1O` [8l, N-{(1R)-1-benzyl-2-[(4-chlorophenyl)amino]-2-oxoethyl}-5-chloro-2-hydroxybenzamide] yielded an IC50 in [1] of 33.7 µM. Also, the MIC is 125 µM (≈ 53.7 µg/mL) in the data set with Candida tropicalis 156 (24h); above 125 µM in the data set on Candida tropicalis 156 (48h); 16 µM (≈ 6.87 µg/mL) in [2] (14h); 16 µM (≈ 6.87 µg/mL) in data set [2] (21h); 125 µM (≈ 53.7 µg/mL) in [4] (72h); 125 µM (≈ 53.7 µg/mL) in data set [4] (120h). The MIC is 32 µM (≈ 13.7 µg/mL) in data set [5]; above 125 µM in [6] (SP.J14365/08, 24 h); above 125 µM in data set [6] (SP.J14365/08, 48 h); above 125 µM in data set [7] (H6966/08, 24 h); above 125 µM in [7] (H6966/08, 48 h); 32 µM (≈ 13.7 µg/mL) in data set [8] (14h). Besides, the MIC is 32 µM (≈ 13.7 µg/mL) in [8] (21h); 32 µM (≈ 13.7 µg/mL) in data set [9] (14h); 32 µM (≈ 13.7 µg/mL) in data set [9] (21h); above 125 µM in data set [10] (24 h); above 125 µM in data set [10] (48 h); above 125 µM in data set [11] (CCM4516, 24 h). Besides, the MIC in data set [11] (CCM4516, 48 h) is above 125 µM. In data set [3], this compound came in with a log k of 0.7329.
